According to the supplement of paper PMC12592484:

Key:
Test in all cases: drug sensitivity score (DSS2, normalised partial AUC of dose-response, 72 h CellTiter-Glo viability) (DSS (dimensionless)); higher = more sensitive (stronger growth inhibition / cytotoxicity); extreme values may be limits of the assay
CAF#4 = tested on: CAF#4 (primary prostate cancer-associated fibroblasts of iCAF-like type)
Procedure, shortened: (§1)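 Viability of low-passage primary prostate cancer-associated fibroblasts, PF179T, WPMY-1, LNCaP and 22Rv1 cells was read by CellTiter-Glo 2.0 luminescence 72 h after seeding onto compounds pre-dispensed in 384-well plates at five doses over a 10,000-fold range. Readings were scaled between vehicle and positive-control wells. Sensitivity is reported as a drug sensitivity score from BREEZE, namely a partial area under the fitted logistic curve divided by the log of its upper asymptote, where higher means more sensitive.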

CAF#5 = tested on: CAF#5 (primary prostate cancer-associated fibroblasts of myCAF-like type)
Procedure, shortened: as §1

LNCAP = tested on: LNCAP
Procedure, shortened: as §1

22Rv1 = tested on: 22Rv1
Procedure, shortened: as §1

PF179T = tested on: PF179T
Procedure, shortened: as §1

CAF#7 = tested on: CAF#7 (primary prostate cancer-associated fibroblasts of myCAF-like type)
Procedure, shortened: as §1

CAF#1 = tested on: CAF#1 (primary prostate cancer-associated fibroblasts of myCAF-like type)
Procedure, shortened: as §1

CAF#2 = tested on: CAF#2 (primary prostate cancer-associated fibroblasts of iCAF-like type)
Procedure, shortened: as §1

CAF#3 = tested on: CAF#3 (primary prostate cancer-associated fibroblasts of myCAF-like type)
Procedure, shortened: as §1

CAF#6 = tested on: CAF#6 (primary prostate cancer-associated fibroblasts of iCAF-like type)
Procedure, shortened: as §1

WPMY-1 = tested on: WPMY-1
Procedure, shortened: as §1

Structure (SMILES) | drug sensitivity score (CAF#4) | drug sensitivity score (CAF#5) | drug sensitivity score (LNCAP) | drug sensitivity score (22Rv1) | drug sensitivity score (PF179T) | drug sensitivity score (CAF#7) | drug sensitivity score (CAF#1) | drug sensitivity score (CAF#2) | drug sensitivity score (CAF#3) | drug sensitivity score (CAF#6) | drug sensitivity score (WPMY-1)
CO[C@@H]1[C@H](N(C)C(=O)c2ccccc2)C[C@H]2O[C@]1(C)n1c3ccccc3c3c4c(c5c6ccccc6n2c5c31)C(=O)NC4 [Midostaurin] (tested concentration range 1-10000 nM) | 16.1 | 16.5 | 4.2 | 0 | 18.4 | 19.8 | 18.7 | 20.7 | 12.5 | 18.3 | 11.9
CO[C@@]12[C@H](COC(N)=O)C3=C(C(=O)C(C)=C(N)C3=O)N1C[C@@H]1N[C@@H]12 [Mitomycin C] (tested concentration range 1-10000 nM) | 0 | 0 | 0.7 | 0 | 0 | 0 | 0 | 0.1 | 0 | 0 | 0
Clc1ccc(C(c2ccccc2Cl)C(Cl)Cl)cc1 (stereo not drawn) [Mitotane] (tested concentration range 1-10000 nM) | 0 | 0 | 1.8 | 0 | 0 | 0 | 0 | 0 | 0.2 | 0 | 0
O=C1c2c(O)ccc(O)c2C(=O)c2c(NCCNCCO)ccc(NCCNCCO)c21 [Mitoxantrone] (tested concentration range 0.1-1000 nM) | 5 | 6.6 | 14.7 | 10.7 | 9.9 | 7.2 | 3.7 | 8.9 | 1.2 | 4 | 15
CCS(=O)(=O)Nc1ccc(Oc2ccc(F)cc2F)c(-c2cn(C)c(=O)c3[nH]ccc23)c1 [Mivebresib] (tested concentration range 1-10000 nM) | 10.7 | 15.5 | 30.7 | 23.5 | 11.1 | 11.4 | 19 | 19.7 | 19.3 | 13.3 | 22.9
Nc1ccccc1NC(=O)c1ccc(CNc2nccc(-c3cccnc3)n2)cc1 [Mocetinostat] (tested concentration range 1-10000 nM) | 8.4 | 11.8 | 13.3 | 14.1 | 13.5 | 9.4 | 9.4 | 11.3 | 9.2 | 7.7 | 12
CCNC(=O)C[C@@H]1N=C(c2ccc(Cl)cc2)c2cc(OC)ccc2-n2c(C)nnc21 [Molibresib] (tested concentration range 1-10000 nM) | 3.8 | 2.9 | 12.3 | 8.9 | 2.9 | 2.7 | 4.6 | 5.1 | 6.6 | 2.9 | 6.5
N#CCNC(=O)c1ccc(-c2ccnc(Nc3ccc(N4CCOCC4)cc3)n2)cc1 [Momelotinib] (tested concentration range 1-10000 nM) | 2.8 | 4.1 | 5 | 0.9 | 2.3 | 3.1 | 3.9 | 4.6 | 4.4 | 2.8 | 6.1
CC1(C)CNc2cc(NC(=O)c3cccnc3NCc3ccncc3)ccc21 [Motesanib] (tested concentration range 1-10000 nM) | 0.7 | 2.4 | 5.1 | 0 | 0 | 3.7 | 1.4 | 2.7 | 5.9 | 2.1 | 0
CCCN(CCC)C(=O)C1=Cc2ccc(-c3ccc(C(=O)N4CCCC4)cc3)cc2N=C(N)C1 [Motolimod] (tested concentration range 1-10000 nM) | 0 | 0 | 3.2 | 1.1 | 0 | 0 | 0.4 | 1 | 1.7 | 1.5 | 0.3
FC(F)(F)c1ccc(/C=C/c2nc(COc3ccc(CCCCn4ccnn4)cc3)co2)cc1 [Mubritinib] (tested concentration range 0.1-1000 nM) | 0 | 0 | 11.7 | 5.8 | 9.7 | 0 | 0 | 0 | 0 | 0 | 12
Cc1cc(OCc2nnc(SC3CCCC3)n2-c2cccnc2)ccc1-c1ccc(S(C)(=O)=O)cc1 [NMS-873] (tested concentration range 1-10000 nM) | 5.7 | 5.6 | 18.4 | 12.4 | 15 | 5.1 | 4.8 | 8.5 | 8 | 5.9 | 14.6
Cc1ccc(C(=O)Nc2cccc(C(F)(F)F)c2)cc1Nc1nc(-c2cccnc2)nc2c1cnn2C [NVP-BHG712] (tested concentration range 1-10000 nM) | 1.6 | 1 | 9.6 | 5 | 0.6 | 0 | 0 | 3.2 | 0 | 0 | 9
CN[C@@H](C)C(=O)N[C@H](C(=O)N1CCC[C@H]1c1nc(C(=O)c2ccc(F)cc2)cs1)C1CCCCC1 [NVP-LCL161] (tested concentration range 2.5-25000 nM) | 0.3 | 0 | 3.7 | 3.4 | 0 | 2 | 0 | 0.4 | 1.2 | 1.9 | 3
CC(=O)c1cc2c(o1)C(=O)c1ccccc1C2=O [Napabucasin] (tested concentration range 2-20000 nM) | 22.4 | 11.7 | 19.5 | 17.7 | 21 | 9.5 | 11.2 | 22.6 | 16.4 | 16.8 | 19.8
CC1(C)CCC(c2ccc(Cl)cc2)=C(CN2CCN(c3ccc(C(=O)NS(=O)(=O)c4ccc(N[C@H](CCN5CCOCC5)CSc5ccccc5)c(S(=O)(=O)C(F)(F)F)c4)cc3)CC2)C1 [Navitoclax] (tested concentration range 1-10000 nM) | 7.5 | 2.3 | 7.5 | 0 | 0 | 0.7 | 3 | 0 | 0 | 3.1 | 0.6
CN1C(=O)N[C@H](Cc2c[nH]c3c(Cl)cccc23)C1=O [Necrostatin 2] (tested concentration range 1-10000 nM) | 0 | 0 | 0 | 0 | 0 | 0 | 0 | 0 | 0 | 0 | 0
O=c1ncn2nc(Sc3ccc(F)cc3F)ccc2c1-c1c(Cl)cccc1Cl [Neflamapimod] (tested concentration range 1-10000 nM) | 0 | 0 | 1.2 | 0.8 | 0 | 0 | 0 | 0 | 0 | 0 | 0
COc1nc(N)nc2c1ncn2[C@@H]1O[C@H](CO)[C@@H](O)[C@@H]1O [Nelarabine] (tested concentration range 1-10000 nM) | 0 | 0 | 0 | 0 | 0 | 0 | 0 | 0 | 0 | 0 | 0
CCOc1cc2ncc(C#N)c(Nc3ccc(OCc4ccccn4)c(Cl)c3)c2cc1NC(=O)/C=C/CN(C)C [Neratinib] (tested concentration range 0.1-1000 nM) | 2.5 | 0 | 3.6 | 2.4 | 2.4 | 4.2 | 1.6 | 2.1 | 4.6 | 3.1 | 2
Cc1cn(-c2cc(NC(=O)c3ccc(C)c(Nc4nccc(-c5cccnc5)n4)c3)cc(C(F)(F)F)c2)cn1 [Nilotinib] (tested concentration range 1-10000 nM) | 1.7 | 0.2 | 5.3 | 2.1 | 0 | 0 | 0.8 | 0.8 | 0 | 0 | 0
CC1(C)NC(=O)N(c2ccc([N+](=O)[O-])c(C(F)(F)F)c2)C1=O [Nilutamide] (tested concentration range 1-10000 nM) | 2.7 | 0 | 2.9 | 0 | 0 | 0 | 0.1 | 0.1 | 0 | 0 | 0
COC(=O)c1ccc2c(c1)NC(=O)/C2=C(\Nc1ccc(N(C)C(=O)CN2CCN(C)CC2)cc1)c1ccccc1 [Nintedanib] (tested concentration range 1-10000 nM) | 7 | 5.5 | 9.2 | 8.4 | 0 | 10.5 | 5.4 | 8.6 | 9.3 | 7.7 | 5.7
